Test results published in ChEMBL document CHEMBL3217499, “Membrane disrupting antimicrobial peptide dendrimers with multiple amino termini” (Medchemcomm, 2012).
≈ marks a conversion by molar mass, not a printed value. Where a SMILES comes first, the peptide text is derived from it. Bridges are numbered along the chain shown (N, C = ends). Roman numbers before positions name the chains, in order. Side-chain parts run from the residue outwards. The star is where a group is joined. X3 = CC(=O)N[C@@H](CC(C)C)C(=O)NCCCC[C@H](NC(=O)[C@H](CC(C)C)NC(C)=O)C(=O)*; LeuLys(Leu) = CC(C)C[C@H](N)C(=O)NCCCC[C@H](NC(=O)[C@@H](N)CC(C)C)C(=O)*; X2 = CC[C@H](C)[C@H](N)C(=O)NCCCC[C@H](NC(=O)[C@@H](N)[C@@H](C)CC)C(=O)*; X4 = C[C@H](N)C(=O)NCCCC[C@H](NC(=O)[C@H](C)N)C(=O)*

What was measured:
Bacillus subtilis = experiment: Antibacterial activity against Bacillus subtilis BR151 after 18 to 24 hrs by broth microdilution assay; format: functional
Staphylococcus aureus [1] = experiment: Antibacterial activity against methicillin-resistant Staphylococcus aureus 42080 by broth microdilution assay; format: functional
Escherichia coli [2] = experiment: Antibacterial activity against Escherichia coli DH5[alpha] after 18 to 24 hrs by broth microdilution assay; format: functional
Enterococcus faecalis [3] = experiment: Antibacterial activity against Enterococcus faecalis Van BE80-8 by broth microdilution assay; format: functional
Enterococcus faecalis [4] = experiment: Antibacterial activity against Enterococcus faecalis ATCC 29212 by broth microdilution assay; format: functional
Pseudomonas aeruginosa [5] = experiment: Antibacterial activity against Pseudomonas aeruginosa ATCC 27853 by broth microdilution assay; format: functional
Pseudomonas aeruginosa [6] = experiment: Antibacterial activity against Pseudomonas aeruginosa K799/WT by broth microdilution assay; format: functional
Pseudomonas aeruginosa [7] = experiment: Antibacterial activity against Pseudomonas aeruginosa PAO1 HS by broth microdilution assay; format: functional
Pseudomonas aeruginosa [8] = experiment: Antibacterial activity against Pseudomonas aeruginosa K799/61 by broth microdilution assay; format: functional
[9] = Hemolytic activity in human RBC after 4 hrs; format: ADME, cell-based; details: erythrocyte
Pseudomonas aeruginosa [10] = experiment: Antibacterial activity against Pseudomonas aeruginosa 8S/H by broth microdilution assay; format: functional
Staphylococcus aureus [11] = experiment: Antibacterial activity against Staphylococcus aureus ATCC 29213 by broth microdilution assay; format: functional
Pseudomonas aeruginosa [12] = experiment: Antibacterial activity against Pseudomonas aeruginosa PAO1 after 18 to 24 hrs by broth microdilution assay; format: functional
Escherichia coli [13] = experiment: Antibacterial activity against Escherichia coli ATCC 25922 by broth microdilution assay; format: functional

SMILES | MIC (Bacillus subtilis) [µg/mL] | MIC (Staphylococcus aureus [1]) [µg/mL] | MIC (Escherichia coli [2]) [µg/mL] | MIC (Enterococcus faecalis [3]) [µg/mL] | MIC (Enterococcus faecalis [4]) [µg/mL] | MIC (Pseudomonas aeruginosa [5]) [µg/mL] | MIC (Pseudomonas aeruginosa [6]) [µg/mL] | MIC (Pseudomonas aeruginosa [7]) [µg/mL] | MIC (Pseudomonas aeruginosa [8]) [µg/mL] | MHC [9] [µg/mL] | MIC (Pseudomonas aeruginosa [10]) [µg/mL] | MIC (Staphylococcus aureus [11]) [µg/mL] | MIC (Pseudomonas aeruginosa [12]) [µg/mL] | MIC (Escherichia coli [13]) [µg/mL]
CC(C)C[C@H](N)C(=O)NCCCC[C@H](NC(=O)[C@@H](N)CC(C)C)C(=O)N[C@@H](Cc1ccccc1)C(=O)NCCCC[C@H](NC(=O)[C@H](Cc1ccccc1)NC(=O)[C@H](CCCCNC(=O)[C@@H](N)CC(C)C)NC(=O)[C@@H](N)CC(C)C)C(=O)N1CCC[C@H]1C(=O)NCCCC[C@H](NC(=O)[C@@H]1CCCN1C(=O)[C@H](CCCCNC(=O)[C@H](Cc1ccccc1)NC(=O)[C@H](CCCCNC(=O)[C@@H](N)CC(C)C)NC(=O)[C@@H](N)CC(C)C)NC(=O)[C@H](Cc1ccccc1)NC(=O)[C@H](CCCCNC(=O)[C@@H](N)CC(C)C)NC(=O)[C@@H](N)CC(C)C)C(=O)N[C@@H](CCCCN)C(N)=O | 2 (≈ 0.732 µM) | > 32 | 19 (≈ 6.96 µM) | > 32 | > 32 | > 32 | > 32 | > 32 | > 32 | > 10000 | > 32 | > 32 | 66 (≈ 24.2 µM) | > 32
CC(C)C[C@@H](N)C(=O)NCCCC[C@H](NC(=O)[C@H](N)CC(C)C)C(=O)N[C@H](CC(C)C)C(=O)NCCCC[C@H](NC(=O)[C@@H](CC(C)C)NC(=O)[C@H](CCCCNC(=O)[C@H](N)CC(C)C)NC(=O)[C@H](N)CC(C)C)C(=O)N[C@H](Cc1ccccc1)C(=O)NCCCC[C@H](NC(=O)[C@@H](Cc1ccccc1)NC(=O)[C@H](CCCCNC(=O)[C@@H](CC(C)C)NC(=O)[C@H](CCCCNC(=O)[C@H](N)CC(C)C)NC(=O)[C@H](N)CC(C)C)NC(=O)[C@@H](CC(C)C)NC(=O)[C@H](CCCCNC(=O)[C@H](N)CC(C)C)NC(=O)[C@H](N)CC(C)C)C(=O)N[C@H](CCCCN)C(N)=O | 2.5 (≈ 0.928 µM) | – | 15 (≈ 5.57 µM) | – | – | – | – | – | – | > 10000 | – | – | 60 (≈ 22.3 µM) | –
CC(C)C[C@@H](N)C(=O)NCCCC[C@H](NC(=O)[C@H](N)CC(C)C)C(=O)N[C@H](Cc1ccccc1)C(=O)NCCCC[C@H](NC(=O)[C@@H](Cc1ccccc1)NC(=O)[C@H](CCCCNC(=O)[C@H](N)CC(C)C)NC(=O)[C@H](N)CC(C)C)C(=O)N1CCC[C@@H]1C(=O)NCCCC[C@H](NC(=O)[C@H]1CCCN1C(=O)[C@H](CCCCNC(=O)[C@@H](Cc1ccccc1)NC(=O)[C@H](CCCCNC(=O)[C@H](N)CC(C)C)NC(=O)[C@H](N)CC(C)C)NC(=O)[C@@H](Cc1ccccc1)NC(=O)[C@H](CCCCNC(=O)[C@H](N)CC(C)C)NC(=O)[C@H](N)CC(C)C)C(=O)N[C@H](CCCCN)C(N)=O | 4.4 (≈ 1.61 µM) | – | 11 (≈ 4.03 µM) | – | – | – | – | – | – | > 10000 | – | – | 60 (≈ 22 µM) | –
CC(=O)N[C@@H](CC(C)C)C(=O)NCCCC[C@H](NC(=O)[C@H](CC(C)C)NC(C)=O)C(=O)N[C@@H](Cc1ccccc1)C(=O)NCCCC[C@H](NC(=O)[C@H](Cc1ccccc1)NC(=O)[C@H](CCCCNC(=O)[C@H](CC(C)C)NC(C)=O)NC(=O)[C@H](CC(C)C)NC(C)=O)C(=O)N1CCC[C@H]1C(=O)NCCCC[C@H](NC(=O)[C@@H]1CCCN1C(=O)[C@H](CCCCNC(=O)[C@H](Cc1ccccc1)NC(=O)[C@H](CCCCNC(=O)[C@H](CC(C)C)NC(C)=O)NC(=O)[C@H](CC(C)C)NC(C)=O)NC(=O)[C@H](Cc1ccccc1)NC(=O)[C@H](CCCCNC(=O)[C@H](CC(C)C)NC(C)=O)NC(=O)[C@H](CC(C)C)NC(C)=O)C(=O)N[C@@H](CCCCN)C(N)=O (I: Ac-LK([Leu-Ac])FK([Phe-X3])PKK-NH2 / II: Ac-LK([Leu-Ac])FK([Phe-X3])P; amide I:6-II:C) | – | > 32 | – | > 32 | > 32 | > 32 | > 32 | > 32 | > 32 | – | > 32 | > 32 | – | > 32
CC(=O)N[C@@H](CC(C)C)C(=O)NCCCC[C@H](NC(=O)[C@H](CC(C)C)NC(C)=O)C(=O)N[C@@H](CC(C)C)C(=O)NCCCC[C@H](NC(=O)[C@H](CC(C)C)NC(=O)[C@H](CCCCNC(=O)[C@H](CC(C)C)NC(C)=O)NC(=O)[C@H](CC(C)C)NC(C)=O)C(=O)N[C@@H](Cc1ccccc1)C(=O)NCCCC[C@H](NC(=O)[C@H](Cc1ccccc1)NC(=O)[C@H](CCCCNC(=O)[C@H](CC(C)C)NC(=O)[C@H](CCCCNC(=O)[C@H](CC(C)C)NC(C)=O)NC(=O)[C@H](CC(C)C)NC(C)=O)NC(=O)[C@H](CC(C)C)NC(=O)[C@H](CCCCNC(=O)[C@H](CC(C)C)NC(C)=O)NC(=O)[C@H](CC(C)C)NC(C)=O)C(=O)N[C@@H](CCCCN)C(N)=O (I: Ac-LK([Leu-Ac])LK([Leu-X3])FKK-NH2 / II: Ac-LK([Leu-Ac])LK([Leu-X3])F; amide I:6-II:C) | – | > 32 | – | > 32 | > 32 | > 32 | > 32 | > 32 | > 32 | – | > 32 | > 32 | – | > 32
CC(C)C[C@H](NC(=O)[C@H](CCCCNC(=O)[C@H](C)N)NC(=O)[C@H](C)N)C(=O)NCCCC[C@H](NC(=O)[C@H](CC(C)C)NC(=O)[C@H](CCCCNC(=O)[C@H](C)N)NC(=O)[C@H](C)N)C(=O)N[C@@H](Cc1ccccc1)C(=O)NCCCC[C@H](NC(=O)[C@H](Cc1ccccc1)NC(=O)[C@H](CCCCNC(=O)[C@H](CC(C)C)NC(=O)[C@H](CCCCNC(=O)[C@H](C)N)NC(=O)[C@H](C)N)NC(=O)[C@H](CC(C)C)NC(=O)[C@H](CCCCNC(=O)[C@H](C)N)NC(=O)[C@H](C)N)C(=O)N[C@@H](CCCCN)C(N)=O (I: H-AK(Ala)LK([Leu-X4])FKK-NH2 / II: H-AK(Ala)LK([Leu-X4])F; amide I:6-II:C) | > 100 | – | > 100 | – | – | – | – | – | – | 1000 | – | – | 67 (≈ 28.4 µM) | –
CC[C@H](C)[C@H](N)C(=O)NCCCC[C@H](NC(=O)[C@@H](N)[C@@H](C)CC)C(=O)N[C@@H](Cc1ccccc1)C(=O)NCCCC[C@H](NC(=O)[C@H](Cc1ccccc1)NC(=O)[C@H](CCCCNC(=O)[C@@H](N)[C@@H](C)CC)NC(=O)[C@@H](N)[C@@H](C)CC)C(=O)N1CCC[C@H]1C(=O)NCCCC[C@H](NC(=O)[C@@H]1CCCN1C(=O)[C@H](CCCCNC(=O)[C@H](Cc1ccccc1)NC(=O)[C@H](CCCCNC(=O)[C@@H](N)[C@@H](C)CC)NC(=O)[C@@H](N)[C@@H](C)CC)NC(=O)[C@H](Cc1ccccc1)NC(=O)[C@H](CCCCNC(=O)[C@@H](N)[C@@H](C)CC)NC(=O)[C@@H](N)[C@@H](C)CC)C(=O)N[C@@H](CCCCN)C(N)=O (I: H-IK(Ile)FK([Phe-X2])PKK-NH2 / II: H-IK(Ile)FK([Phe-X2])P; amide I:6-II:C) | 2.5 (≈ 0.916 µM) | > 32 | 18 (≈ 6.59 µM) | > 32 | > 32 | > 32 | > 32 | > 32 | > 32 | > 10000 | > 32 | > 32 | 61 (≈ 22.3 µM) | > 32
CC(C)C[C@H](N)C(=O)NCCCC[C@H](NC(=O)[C@@H](N)CC(C)C)C(=O)N[C@@H](C)C(=O)NCCCC[C@H](NC(=O)[C@H](C)NC(=O)[C@H](CCCCNC(=O)[C@@H](N)CC(C)C)NC(=O)[C@@H](N)CC(C)C)C(=O)N[C@@H](Cc1ccccc1)C(=O)NCCCC[C@H](NC(=O)[C@H](Cc1ccccc1)NC(=O)[C@H](CCCCNC(=O)[C@H](C)NC(=O)[C@H](CCCCNC(=O)[C@@H](N)CC(C)C)NC(=O)[C@@H](N)CC(C)C)NC(=O)[C@H](C)NC(=O)[C@H](CCCCNC(=O)[C@@H](N)CC(C)C)NC(=O)[C@@H](N)CC(C)C)C(=O)N[C@@H](CCCCN)C(N)=O (I: H-LK(Leu)AK([Ala-LeuLys(Leu)])FKK-NH2 / II: H-LK(Leu)AK([Ala-LeuLys(Leu)])F; amide I:6-II:C) | 67 (≈ 26.5 µM) | – | > 100 | – | – | – | – | – | – | > 2000 | – | – | > 100 | –
CC(C)C[C@H](NC(=O)[C@H](CCCCNC(=O)[C@@H](N)CC(C)C)NC(=O)[C@@H](N)CC(C)C)C(=O)NCCCC[C@H](NC(=O)[C@H](CC(C)C)NC(=O)[C@H](CCCCNC(=O)[C@@H](N)CC(C)C)NC(=O)[C@@H](N)CC(C)C)C(=O)N[C@@H](C)C(=O)NCCCC[C@H](NC(=O)[C@H](C)NC(=O)[C@H](CCCCNC(=O)[C@H](CC(C)C)NC(=O)[C@H](CCCCNC(=O)[C@@H](N)CC(C)C)NC(=O)[C@@H](N)CC(C)C)NC(=O)[C@H](CC(C)C)NC(=O)[C@H](CCCCNC(=O)[C@@H](N)CC(C)C)NC(=O)[C@@H](N)CC(C)C)C(=O)N[C@@H](CCCCN)C(N)=O (I: H-LK(Leu)LK([Leu-LeuLys(Leu)])AKK-NH2 / II: H-LK(Leu)LK([Leu-LeuLys(Leu)])A; amide I:6-II:C) | 4.5 (≈ 1.77 µM) | – | > 100 | – | – | – | – | – | – | > 2000 | – | – | 67 (≈ 26.4 µM) | –
CC(C)C[C@H](NC(=O)[C@H](CCCCNC(=O)[C@@H](N)CC(C)C)NC(=O)[C@@H](N)CC(C)C)C(=O)NCCCC[C@H](NC(=O)[C@H](CC(C)C)NC(=O)[C@H](CCCCNC(=O)[C@@H](N)CC(C)C)NC(=O)[C@@H](N)CC(C)C)C(=O)N[C@@H](Cc1ccccc1)C(=O)NCCCC[C@H](NC(=O)[C@H](Cc1ccccc1)NC(=O)[C@H](CCCCNC(=O)[C@H](CC(C)C)NC(=O)[C@H](CCCCNC(=O)[C@@H](N)CC(C)C)NC(=O)[C@@H](N)CC(C)C)NC(=O)[C@H](CC(C)C)NC(=O)[C@H](CCCCNC(=O)[C@@H](N)CC(C)C)NC(=O)[C@@H](N)CC(C)C)C(=O)N[C@@H](C)C(N)=O (I: H-LK(Leu)LK([Leu-LeuLys(Leu)])FKA-NH2 / II: H-LK(Leu)LK([Leu-LeuLys(Leu)])F; amide I:6-II:C) | 2 (≈ 0.758 µM) | – | 15 (≈ 5.69 µM) | – | – | – | – | – | – | 31 | – | – | ≥ 100 | –
